# Experimental data reported in patent publication US4048334A, “Active derivatives of methylamino in therapeutic compositions and methods of use” (priority 1974, dated 1977).
# What was measured:
# [1] = system: neuroleptic-induced catatonia; experiment: Suppression of neuroleptic-induced catatonia (curative treatment, prochlorperazine); format: in vivo, rat (male, OFA strain); settings: 80 mg/kg oral
# Description: b. Suppression of neuroleptic-induced catatonia
# Batches of 5 male rats of the OFA strain were given 12.5 mg/kg of prochlorperazine by intraperitoneal route. Fifty-five minutes later, an oral dose in aqueous solution of the compound to be studied was administered to all the animals with the exception of the control group. The progress of the catatonia was noted following the same scale as that used in the tests described above.
# [2] = system: electrocardiogram; experiment: Effect on the electrocardiogram; format: in vivo; settings: dog, 5 mg/kg injected
# [3] = system: tremorine-induced cholinergic effects; experiment: Anti-tremorine test (cholinolytic properties in vivo); parameters: species or system mice (male, OF1 strain); key to peripheral cholinergic effects score (salivation, sweating, weeping): 0: no action; 1: slight action; 2: average action; 3: strong action; 4: very strong action
# Description: For this purpose, the following test was performed with a view to determining the anti-tremorine properties of Compound 1.
# When injected into mice, tremorine produces peripheral effects i.e. weeping, sweating, salivation and diarrhoea and central effects i.e. tremor and akinesia. Such effects are due to an increase in the amount of intracerebral acetylcholine and serotonine.
# Male mice of the OF1 strain weighing about 22 g were divided into batches of 10. […] Thirty minutes later a dose of 10 mg/kg of tremorine was injected by intraperitoneal route and, at different times after this injection, note was taken of the cholinergic effects on each animal in accordance with the following scale: […]
# [4] = system: neuroleptic-induced catatonia; experiment: Inhibition of neuroleptic-induced catatonia (prochlorperazine); format: in vivo, rat (male, OFA strain)
# Description: 2. Inhibition of neuroleptic-induced catatonia
# The blocking of dopaminergic receptors by neuroleptics in the extra-pyramidal system induces catatonia in the rat. Catatonia is differentiated from sedative properties by means of the test used hereabove for reserpine-induced catatonia. The same system of scoring was also employed in the present case.
# An oral dose of the compound to be studied in aqueous solution was administered to batches of 10 male rats of the OFA strain weighing about 150 to 200 g. […] Three hours after the injection of this latter compound, catatonia was measured. An identical trial was also carried out with control animals which received prochlorperazine but none of the compounds under study.
# The scoring system, used was that given hereabove in Table I.
# [5] = system: reserpine-induced catatonia; experiment: Suppression of reserpine-induced catatonia (curative treatment); format: in vivo, rat (male, OFA strain); parameters: key to catatonia score (maximum 5 per batch): number of animals (of 5) still in catatonia; max 5 per batch; settings: 80 mg/kg oral
# Description: a. Suppression of reserpine-induced catatonia
# Batches of 5 male rats of the OFA strain, weighing 150 to 200 g were given 5 mg/kg of reserpine by intraperitoneal route. One hour and 45 minutes later, namely when the animals were in a state of catatonia, an aqueous dose of the compound to be studied was administered by oral route to all the animals with the exception of the control group.
# The progress of the catatonia was then noted following the scale used in the tests described hereabove.
# The maximum score was thus 5 per batch which means that all the animals of the batch were considered to be still in a state of catatonia.
# [6] = system: reserpine-induced catatonia; experiment: Inhibition of reserpine-induced catatonia; format: in vivo, rat (male, OFA strain)
# Description: 1. Inhibition of reserpine-induced catatonia
# After sufficient doses of reserpine have been administered to the rat, a series of symptoms occur, more particularly ptosis, catatonia and a drop in central temperature. These symptoms are caused by the depletion of the intragranular reserve pool of boigenetic amines at the synaptic terminals.
# An oral dose of the compound to be studied in aqueous solution was administered to batches of 10 male rats of the OFA strain weighing about 150 to 200 g. Thirty minutes later a dose of 5 mg/kg of reserpine was given by intraperitoneal route. Three hours after the injection of reserpine, the animals were suspended by the four paws to a horizontally stretched wire fixed at 15 cm from the ground. The catatonic animals were those which maintained the position so given for at least 30 seconds. […] The maximum score was therefore 10 per batch. An identical trial was undertaken with control animals which received reserpine but none of the compounds being studied.
# [7] = system: catalepsy; experiment: Inhibition of catalepsy (crossing of homolateral paws, prochlorperazine); format: in vivo, rat; settings: Rattus norvegicus, po, read-out: dose necessary to induce complete inhibition of the catalepsy; prochlorperazine catalepsy
# Description: Additional trials were carried out on rats with Compound 1 and amantadine. These trials involved catalepsy as evidenced by the crossing of the animals' homolateral paws.
# [8] = system: peripheral noradrenergic phenomena (arterial pressure, nictitating membrane); experiment: Influence on peripheral noradrenergic phenomena (norepinephrine, arterial pressure and nictitating membrane)
# [9] = system: peripheral noradrenergic phenomena (arterial pressure, nictitating membrane); settings: cat, in vivo
# [10] = system: reserpine-induced and neuroleptic-induced catatonia; experiment: Toxico-pharmacological index (LD50 / effective dose in catatonia); settings: ED20-30: 20 to 30% inhibition of the catatonia
# [11] = in vivo; settings: mouse, mice, oral, aqueous solution, 10 days observation
# [12] = SPERBER et al., J. Amer. Chem. Soc., 71, 3352 (1949); cited from earlier work
# [13] = Toxico-pharmacological index (LD50 / effective dose in catatonia); settings: in vivo
# [14] = 20 mg/kg oral, 30 min before prochlorperazine
# [15] = 20 mg/kg oral, 30 min before reserpine
structure (smiles),measurement,setting,value
"NC12CC3CC(CC(C3)C1)C2 [Amantadine, 1-amino-adamantane]",catatonia score (5 rats per batch),[1]; 1h30 after prochlorperazine,5
same,catatonia score (5 rats per batch),[1]; 2h30 after prochlorperazine,2
same,catatonia score (5 rats per batch),[1]; 3h30 after prochlorperazine,0
same,catatonia score (5 rats per batch),[1]; 3h after prochlorperazine,1
same,catatonia score (5 rats per batch),[1]; 4h after prochlorperazine,0
same,catatonia score (5 rats per batch),[1]; 5h after prochlorperazine,0
same,effect on the electrocardiogram,[2],cardiac arrhythmia due to ventricular extrasystoles
same,"peripheral cholinergic effects score (salivation, sweating, weeping)","[3]; 40 mg/kg oral, 20, 30 and 40 minutes after tremorine 10 mg/kg i.p.",4
same,central cholinergic effects (normal and provoked tremor),"[3]; 40 mg/kg oral, identical to the peripheral score (4)",Identical results
same,antitremorine properties,"[3]; mouse, in vivo",devoid of antitremorine properties
same,Inhibition of the neuroleptic-induced catatonia,"[4]; 100 mg/kg oral, 30 min before prochlorperazine",4 (100% inhibition of catatonia in comparison with the controls (namely a score of 0 per studied batch))
same,catatonia score (maximum 5 per batch),[5]; 2h15 after reserpine,4
same,catatonia score (maximum 5 per batch),[5]; 2h30 after reserpine,3
same,catatonia score (maximum 5 per batch),[5]; 3h30 after reserpine,1
same,catatonia score (maximum 5 per batch),[5]; 2h after reserpine,5
same,catatonia score (maximum 5 per batch),[5]; 3h after reserpine,2
same,catatonia score (maximum 5 per batch),[5]; 4h after reserpine,0
same,catatonia score (maximum 5 per batch),[5]; 5h after reserpine,0
same,Inhibition of reserpine-induced catatonia,"[6]; 100 mg/kg oral, 30 min before reserpine",4 (100% inhibition of catatonia in comparison with the controls (namely a score of 0 per studied batch))
same,ED100,[7],80 mg/kg
same,Contractile reaction of the nictitating membrane with electric stimulation,[8]; cumulative dose 0.1 mg/kg i.v.,20 mm
same,Contractile reaction of the nictitating membrane without electric stimulation,[8]; cumulative dose 0.1 mg/kg i.v.,0 mm
same,Increase in arterial pressure after injection of norepinephrine,[8]; cumulative dose 0.1 mg/kg i.v.,29 mm Hg
same,Contractile reaction of the nictitating membrane with electric stimulation,[8]; cumulative dose 1 mg/kg i.v.,20 mm
same,Contractile reaction of the nictitating membrane without electric stimulation,[8]; cumulative dose 1 mg/kg i.v.,3 mm
same,Increase in arterial pressure after injection of norepinephrine,[8]; cumulative dose 1 mg/kg i.v.,35 mm Hg
same,Contractile reaction of the nictitating membrane with electric stimulation,[8]; cumulative dose 3 mg/kg i.v.,16 mm
same,Contractile reaction of the nictitating membrane without electric stimulation,[8]; cumulative dose 3 mg/kg i.v.,4.4 mm
same,Increase in arterial pressure after injection of norepinephrine,[8]; cumulative dose 3 mg/kg i.v.,35 mm Hg
same,Contractile reaction of the nictitating membrane with electric stimulation,[8]; cumulative dose 5 mg/kg i.v.,10 mm
same,Contractile reaction of the nictitating membrane without electric stimulation,[8]; cumulative dose 5 mg/kg i.v.,5.9 mm
same,Increase in arterial pressure after injection of norepinephrine,[8]; cumulative dose 5 mg/kg i.v.,59 mm Hg
same,Contractile reaction of the nictitating membrane with electric stimulation,[8]; cumulative dose 10 mg/kg i.v.,4 mm
same,Contractile reaction of the nictitating membrane without electric stimulation,[8]; cumulative dose 10 mg/kg i.v.,7.5 mm
same,Increase in arterial pressure after injection of norepinephrine,[8]; cumulative dose 10 mg/kg i.v.,57 mm Hg
same,ganglioplegic action,[8]; in vivo,exerts a ganglioplegic action
same,own effect on contractile reaction of the nictitating membrane,[8]; in vivo,stimulates the contractile reaction of the nictitating membrane
same,potentiation of (peripheral) effects of norepinephrine,[8]; in vivo,potentiates the peripheral adrenergic effects
same,potentiation of the effects of the electric stimulation,[8]; in vivo,does not potentiate the effects of the electric stimulation
same,dose from which exogenous norepinephrine is potentiated,[9],≥ 1 mg/kg
same,dose from which ganglioplegic properties are shown,[9],≥ 5 mg/kg
"CCCC(C)(N)CC(C)CC (stereo not shown) [Compound 6, 1,3-Dimethyl-1-n-propyl-n-pentylamine]",Inhibition of the neuroleptic-induced catatonia,[4]; [14],1 (20 to 30% inhibition of catatonia in comparison with the controls (namely a score of 7 to 8 per studied batch))
same,Inhibition of reserpine-induced catatonia,[6]; [15],1 (20 to 30% inhibition of catatonia in comparison with the controls (namely a score of 7 to 8 per studied batch))
same,Index LD50/ED20-30,[10],> 25
same,LD50 at 240 h,[11],> 500 mg/kg
"CCCCCC(C)(N)CCC (stereo not shown) [Compound 9, 1-Methyl-1-n-propyl-n-hexylamine]",Inhibition of the neuroleptic-induced catatonia,[4]; [14],1 (20 to 30% inhibition of catatonia in comparison with the controls (namely a score of 7 to 8 per studied batch))
same,Inhibition of reserpine-induced catatonia,[6]; [15],1 (20 to 30% inhibition of catatonia in comparison with the controls (namely a score of 7 to 8 per studied batch))
same,Index LD50/ED20-30,[10],87
same,LD50 at 240 h,[11],1750 mg/kg
"CCCCC(N)(CCCC)CCCC [Compound 12, 1,1-Di-n-butyl-n-pentylamine]",spasmolytic activity and toxicity versus corresponding trialkylethylamines,[12],less spasmolytic and more toxic than the corresponding trialkylethylamines
same,Inhibition of the neuroleptic-induced catatonia,[4]; [14],1 (20 to 30% inhibition of catatonia in comparison with the controls (namely a score of 7 to 8 per studied batch))
same,Inhibition of reserpine-induced catatonia,[6]; [15],1 (20 to 30% inhibition of catatonia in comparison with the controls (namely a score of 7 to 8 per studied batch))
same,Index LD50/ED20-30,[10],25
same,LD50 at 240 h,[11],500 mg/kg
"CCCC(N)(CC)CCC [Compound 2, 1-Ethyl-1-n-propyl-n-butylamine]",Inhibition of the neuroleptic-induced catatonia,"[4]; 5 mg/kg oral, 30 min before prochlorperazine 12.5 mg/kg i.p.",1 (20 to 30% inhibition of catatonia in comparison with the controls (namely a score of 7 to 8 per studied batch))
same,Inhibition of reserpine-induced catatonia,"[6]; 5 mg/kg oral, 30 min before reserpine 5 mg/kg i.p.",1 (20 to 30% inhibition of catatonia in comparison with the controls (namely a score of 7 to 8 per studied batch))
same,selectivity ratio,[13],25
same,LD50 at 240 h,[11],150 mg/kg
